In general, inhibition of growth refers to how much of the control response was suppressed. In general, MIC refers to the least concentration at which growth counts as inhibited.

From patent US12612354B2, “Cyclopentenones derivatives and their use as antibiotics” (Centre National de la Recherche Scientifique (CNRS), priority 2020, dated 2026) come the findings set out here.

Holding throughout (assay type): cell-based
In experiment [1] the test system is Escherichia coli ATCC 25922. The experiment is described as follows: Kirby-Bauer disk diffusion susceptibility test (inhibition zone). The conditions noted are these: for inhibition of growth at 100 µg/disc: ATCC25922, 24 h, 100 μg of compound; for inhibition activity (inhibition zone): 12.5, 25, 50 and 100 μg per disc, FIG. 4. The procedure: FIG. 4: Kirby-Bauer Disk diffusion susceptibility test on Escherichia coli ATCC 25922 with compounds Ia and Ib at 12.5, 25, 50 and 100 μg and the reference gentamicin at 10 μg; left: graph representing the diameter of the inhibition zone as a function of each sample; right: photo of the petri dish illustrating the inhibition zones with Ia at 12.5, 25, 50 and 100 μg.
(§1) Pathogenic bacteria were revived by streaking bacteria on 100 mm Petri dishes containing the suitable medium recommended by ATCC protocol, overnight at 30 to 37° C.: Luria-Bertani Broth (LB, Difco, Thermo Fisher Scientific Inc.), Tryptic Soy Broth (TSB, Difco, Thermo Fisher Scientific Inc.), Nutrient Broth (NB, Difco, Thermo Fisher Scientific Inc.), supplemented with 2% of agar (Granulated Agar, Difco, Thermo Fisher Scientific Inc.).
(§2) For each pathogen, several colonies were collected with a loop and transferred in 5 ml of sterile NB medium and incubated on a rotary shaker (130 rpm) overnight at 30 to 37° C.
(§3) 150 mm Nutrient Broth Agar plates were swabbed with inocula and kept for 15 min for absorption. Pre-sterilized six-millimeter Whatman No. 1 discs were placed in the Petri dishes and 12.5, 25, 50 and 100 μg of the test compounds in DMSO (10 mg/ml) were applied to the sterile disc papers. The standard drug gentamycin (10 μg) was used as a positive reference standard to determine the sensitivity of each bacterial species and DMSO as a negative control. Then the plates were incubated at 30° or 37° C. for 24 h and inhibition diameters were measured.
Compounds Ia to Ic have also been tested on the following pathogenic bacteria in order to evaluate their inhibition efficacy by the Petri dish inhibition zone method: • Staphylococcus aureus ATCC 25923—Gram-positive (compounds Ia, Ib and Ic tested) • Enterobacter cloacae ATCC 13047—Gram-negative (compounds Ia and Ib tested) • Acinetobacter baumannii ATCC 19606—Gram-negative (compounds Ib and Ic tested) • Escherichia coli ATCC 25922—Gram-negative (compounds Ia and Ib tested)
This technique enables to visualize the potential for inhibiting the growth of target pathogenic bacteria. A dose-response study at 12.5, 25, 50 and 100 μg of each compound has been carried out, comparing the inhibition zones with 10 μg gentamicin. […] Best results are obtained for Gran negative bacteria, especially Enterobacter cloacae as represented on FIG. 2.
Compounds Ib, Ic, Ij, Ik, Il, Im, Ih, Ig, Ii, Id and If have also been tested on the following pathogenic bacteria in order to evaluate their inhibition efficacy by the Petri dish inhibition zone method: • Micrococcus luteus ATCC10240; • Bacillus subtilis ATCC6633; • Escherichia coli ATCC 25922.
The percentage of inhibition growth at 100 μg of each tested compound has been determined.
For orientation: A growth-free zone around the sample is the usual read-out of agar diffusion tests.

Experiment [2] relates to Micrococcus luteus ATCC10240. As to the kind of experiment: Petri dish inhibition zone method, % inhibition of growth. The conditions noted are these: 24 h, 100 μg of compound. Here is the method:
(§4) Pathogenic bacteria were revived by streaking bacteria on 100 mm Petri dishes containing the suitable medium recommended by ATCC protocol, overnight at 30 to 37° C.: Luria-Bertani Broth (LB, Difco, Thermo Fisher Scientific Inc.), Tryptic Soy Broth (TSB, Difco, Thermo Fisher Scientific Inc.), Nutrient Broth (NB, Difco, Thermo Fisher Scientific Inc.), supplemented with 2% of agar (Granulated Agar, Difco, Thermo Fisher Scientific Inc.). For each pathogen, several colonies were collected with a loop and transferred in 5 ml of sterile NB medium and incubated on a rotary shaker (130 rpm) overnight at 30 to 37° C. 150 mm Nutrient Broth Agar plates were swabbed with inocula and kept for 15 min for absorption. Pre-sterilized six-millimeter Whatman No. 1 discs were placed in the Petri dishes and 12.5, 25, 50 and 100 μg of the test compounds in DMSO (10 mg/ml) were applied to the sterile disc papers. The standard drug gentamycin (10 μg) was used as a positive reference standard to determine the sensitivity of each bacterial species and DMSO as a negative control. Then the plates were incubated at 30° or 37° C. for 24 h and inhibition diameters were measured. Compounds Ib, Ic, Ij, Ik, Il, Im, Ih, Ig, Ii, Id and If have also been tested on the following pathogenic bacteria in order to evaluate their inhibition efficacy by the Petri dish inhibition zone method: • Micrococcus luteus ATCC10240; • Bacillus subtilis ATCC6633; • Escherichia coli ATCC 25922. The percentage of inhibition growth at 100 μg of each tested compound has been determined.

The subject of experiment [3] is Bacillus subtilis ATCC6633. The experiment is described as above. To be noted: 24 h, 100 μg of compound. Here is the method:
as §4

For experiment [4], the system named is Staphylococcus aureus ATCC 25923. As to the kind of experiment: Minimum inhibitory concentration (MIC), microbroth dilution assay. The conditions noted are these: Mueller-Hinton broth. Here is the method: (§5) Pathogenic bacteria were revived by streaking bacteria on 100 mm Petri dishes containing the suitable medium recommended by ATCC protocol, overnight at 30 to 37° C.: Luria-Bertani Broth (LB, Difco, Thermo Fisher Scientific Inc.), Tryptic Soy Broth (TSB, Difco, Thermo Fisher Scientific Inc.), Nutrient Broth (NB, Difco, Thermo Fisher Scientific Inc.), supplemented with 2% of agar (Granulated Agar, Difco, Thermo Fisher Scientific Inc.)
(§6) For each pathogen, several colonies were collected with a loop and transfered in 10 ml of sterile Mueller-Hinton broth (Sigma) medium and incubated on a rotary shaker (130 rpm) […] at 30 to 37° C. The OD at 600 nm was measured and adjusted to 0.5 OD, then the solution was diluted 400-fold to have the appropriate inoculum
(§7) The antimicrobial susceptibility was carried out by microbroth dilution assay. Tests were performed on 96-well plates with 100 μL of Mueller-Hinton broth (Sigma) medium final volume and a final bacterial concentration of 5.10^5 CUF/ml. The tested compounds were solubilized in dimethyl sulfoxide (DMSO) given 10 mg/mL (then expressed in μM) stock solution. The stock solutions were diluted from 100 μg/ml to 0.195 μg/ml for testing.
(§8) Compounds Ia to Ie have also been tested on Staphylococcus aureus ATCC 25923 strain and Staphylococcus aureus BAA-1766 (MRSA) strain (both Gram-positive) by using the screening method of the measurement of MIC (minimum inhibitory concentration).
(§9) This technique enables to determine the minimum concentration that causes total inhibition of the growth of the target pathogen.
(In broth dilution the organism is exposed to a series of concentrations in liquid medium.)

The subject of experiment [5] is Staphylococcus aureus BAA-1766 (MRSA). The experiment is described as above. The conditions noted are these: S. aureus BAA-1766 (MRSA), Mueller-Hinton broth. The procedure: as §5, §6, §7, §8, §9
Experiment [6] relates to Staphylococcus aureus ATCC 25923. As to the kind of experiment: Kirby-Bauer disk diffusion susceptibility test (inhibition zone). The conditions noted are these: S. aureus ATCC 25923; 12.5, 25, 50 and 100 μg per disc; FIG. 1. Here is the method: FIG. 1: Kirby-Bauer Disk diffusion susceptibility test on Staphylococcus aureus ATCC 25923 with compounds Ia, Ib and Ic at 12.5, 25, 50 and 100 μg and the reference gentamicin at 10 μg; left: graph representing the diameter of the inhibition zone as a function of each sample; right: photo of the petri dish illustrating the inhibition zones with Ic at 12.5, 25, 50 and 100 μg.
as §1, §2, §3
Compounds Ia to Ic have also been tested on the following pathogenic bacteria in order to evaluate their inhibition efficacy by the Petri dish inhibition zone method: • Staphylococcus aureus ATCC 25923—Gram-positive (compounds Ia, Ib and Ic tested) • Enterobacter cloacae ATCC 13047—Gram-negative (compounds Ia and Ib tested) • Acinetobacter baumannii ATCC 19606—Gram-negative (compounds Ib and Ic tested) • Escherichia coli ATCC 25922—Gram-negative (compounds Ia and Ib tested) […]

The test system of experiment [7] is Acinetobacter baumannii ATCC 19606. Described as above. To be noted: 12.5, 25, 50 and 100 μg per disc, FIG. 3. Here is the method: FIG. 3: Kirby-Bauer Disk diffusion susceptibility test on Acinetobacter baumanii ATCC 19606 with compounds Ib and Ic at 12.5, 25, 50 and 100 μg and the reference gentamicin at 10 μg; left: graph representing the diameter of the inhibition zone as a function of each sample; right: photo of the petri dish illustrating the inhibition zones with Ib and Ic at 12.5, 25, 50 and 100 μg.
as §1, §2
(§10) 150 mm Nutrient Broth Agar plates were swabbed with inocula and kept for 15 min for absorption. Pre-sterilized six-millimeter Whatman No. 1 discs were placed in the Petri dishes and 12.5, 25, 50 and 100 μg of the test compounds in DMSO (10 mg/ml) were applied to the sterile disc papers. […] Then the plates were incubated at 30° or 37° C. for 24 h and inhibition diameters were measured. […]

For experiment [8], the system named is Enterobacter cloacae ATCC 13047. The description is as above. To be noted: 12.5, 25, 50 and 100 μg per disc, FIG. 2. Here is the method:
FIG. 2: Kirby-Bauer Disk diffusion susceptibility test on Enterobacter cloacae ATCC 13047 with compounds Ia and Ib at 12.5, 25, 50 and 100 μg and the reference gentamicin at 10 μg; left: graph representing the diameter of the inhibition zone as a function of each sample; right: photo of the petri dish illustrating the inhibition zones with Ia at 12.5, 25, 50 and 100 μg.
as §1, §2, §10

Where [9] appears, read: Staphylococcus aureus, ATCC25923, S. aureus ATCC 25923, read-out: MIC.

Structures are written as SMILES. ≈ marks a conversion by molar mass, not a printed value. Read-outs that look alike come from different tables or passages of the source.

`O=C1C=C[C@H](O)C1c1ccc2ccccc2c1` (mixture of isomers) [Il]: the inhibition of growth at 100 µg/disc in experiment [1] was 40%; in experiment [2] it was 50%; in experiment [3] it was 57%.
The matching figures for `O=C1C=C[C@@](O)(CO)[C@H]1c1ccc2c(c1)OCO2` (racemic) [Ii]: 45%, 0% and 0%.
`O=C1C=C[C@H](O)[C@H]1c1ccccc1Cl` (racemic) [Ic]: the MIC in experiment [4] (S. aureus ATCC 25923) is 6.26 µg/mL (≈ 30 µM); in experiment [4] (setting [9]) it was 6.25 µg/mL (≈ 30 µM); in experiment [5] it was 37.5 µg/mL (≈ 180 µM). In addition, the inhibition of growth at 100 µg/disc in experiment [1] is 35%; in experiment [2], 33%; in experiment [3], 31%. For the same compound, the “inhibition activity (inhibition zone)” value in experiment [6] and in experiment [7] was “inhibition activity” in each case.
Regarding `O=C1C=C[C@@](O)(CO)[C@H]1c1ccc(F)cc1` (racemic) [Ig], the inhibition of growth at 100 µg/disc stood at 55% in experiment [1], 0% in experiment [2] and 18% in experiment [3].
Consider `O=C1C=C[C@H](O)[C@H]1c1ccc(Cl)cc1` (racemic) [Ib], for which the results for the MIC in experiment [4] (setting [9]) and in experiment [5] were 12.5 µg/mL (≈ 59.9 µM) and 18.8 µg/mL (≈ 89.9 µM), respectively. The “inhibition activity (inhibition zone)” value in experiment [1], in experiment [6], in experiment [7] and in experiment [8] was “inhibition activity” in each case. In addition, the inhibition of growth at 100 µg/disc stood at 60% in experiment [1], 68% in experiment [2] and 51% in experiment [3].
In the case of `COc1cccc(C2C(=O)C=C[C@@H]2O)c1` (mixture of isomers) [Ik], the values for the inhibition of growth at 100 µg/disc in experiment [1], in experiment [2] and in experiment [3] were 42%, 23% and 48%, respectively.
The matching figures for `O=C1C=C[C@H](O)C1c1cccc2ccccc12` (mixture of isomers) [Im]: 47%, 51% and 56%.
The matching figures for `COc1ccc(C2C(=O)C=C[C@@H]2O)cc1` (mixture of isomers) [Ij]: 62%, 39% and 61%.
Turning to `O=C1C=C[C@@](O)(CO)[C@H]1c1ccc(Cl)cc1` (racemic) [Id], the MIC in experiment [4] (setting [9]) and in experiment [5] was 12 µg/mL (≈ 50.3 µM) throughout. Also, the values for the inhibition of growth at 100 µg/disc in experiment [1], in experiment [2] and in experiment [3] were 45%, 0% and 30%, respectively.
For `O=C1C=C[C@H](O)[C@H]1c1ccccc1` (relative stereo) [Ia, (4S*,5R*)-4-hydroxy-5-phenyl-cyclopent-2-en-1-one], the MIC is 25 µg/mL (≈ 144 µM) in experiment [4] (setting [9]) and > 50 µg/mL in experiment [5]. Also, the “inhibition activity (inhibition zone)” value in experiment [1], in experiment [6] and in experiment [8] was “inhibition activity” each time.
Regarding `O=C1C=C[C@@](O)(CO)[C@H]1c1ccccc1` (racemic) [If], the inhibition of growth at 100 µg/disc in experiment [1] amounted to 57%; in experiment [2], 21%; in experiment [3] it was 0%.
Consider `CC(=O)O[C@H]1C=CC(=O)[C@@H]1c1ccccc1` (racemic) [Ie], for which the minimum inhibitory concentration (MIC) in experiment [4] (setting [9]) and in experiment [5] was 6.25 µg/mL (≈ 28.9 µM) each time.
With `COc1ccc([C@H]2C(=O)C=C[C@@]2(O)CO)cc1` (racemic) [Ih], the inhibition of growth at 100 µg/disc in experiment [1] stood at 55%; in experiment [2], 0%; in experiment [3], 0%.
